In this test the target is T1, EPHA2 (Homo sapiens, UniProt P29317).
T1 construct: purchased Thermo Fisher Scientific (Life Technologies) SelectScreen
The experiment in a line: SelectScreen Z'LYTE. It is filed as biochemical. A digest of the protocol: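 NU5455 was profiled across the SelectScreen Broad panel of kinase activity and binding assays. Z'LYTE reactions such as CSF1R ran at apparent Km ATP, while the Adapta CAMK1 assay used ATP listed as 10. Values are given as percent.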

T1 sequence (P29317 24-976): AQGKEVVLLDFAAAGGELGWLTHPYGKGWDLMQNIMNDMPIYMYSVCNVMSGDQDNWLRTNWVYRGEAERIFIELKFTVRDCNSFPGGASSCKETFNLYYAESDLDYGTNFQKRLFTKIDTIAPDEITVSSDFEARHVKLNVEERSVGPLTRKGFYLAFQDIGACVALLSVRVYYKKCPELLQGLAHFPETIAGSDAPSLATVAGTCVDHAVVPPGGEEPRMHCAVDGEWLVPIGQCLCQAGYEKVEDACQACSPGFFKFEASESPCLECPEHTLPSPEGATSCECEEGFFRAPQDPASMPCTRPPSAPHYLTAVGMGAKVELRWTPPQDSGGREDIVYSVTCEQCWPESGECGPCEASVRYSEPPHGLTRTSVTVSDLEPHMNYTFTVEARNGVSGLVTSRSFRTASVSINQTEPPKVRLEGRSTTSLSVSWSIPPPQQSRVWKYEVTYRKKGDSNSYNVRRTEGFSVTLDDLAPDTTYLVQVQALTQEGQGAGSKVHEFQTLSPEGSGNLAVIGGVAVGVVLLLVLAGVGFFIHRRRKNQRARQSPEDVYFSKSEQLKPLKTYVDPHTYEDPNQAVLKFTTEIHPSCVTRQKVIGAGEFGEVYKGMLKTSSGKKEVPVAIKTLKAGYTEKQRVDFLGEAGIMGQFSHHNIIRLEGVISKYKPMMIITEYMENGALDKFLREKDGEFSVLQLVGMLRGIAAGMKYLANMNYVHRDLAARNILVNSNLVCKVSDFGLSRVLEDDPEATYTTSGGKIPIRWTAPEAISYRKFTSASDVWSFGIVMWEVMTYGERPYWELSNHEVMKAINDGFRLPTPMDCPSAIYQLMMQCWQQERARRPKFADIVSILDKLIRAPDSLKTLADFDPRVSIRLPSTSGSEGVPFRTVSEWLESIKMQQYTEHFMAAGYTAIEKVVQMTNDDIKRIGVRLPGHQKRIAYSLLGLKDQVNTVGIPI

`CN(C(=O)CN1CCOCC1)c1ccc2sc3c(-c4cccc5c(=O)cc(N6CC7CCC(C6)O7)oc45)cccc3c2c1` [NU5455] displayed an inhibition at 1 µM of 4.8%.

These data come from paper PMC6934184, “Selective DNA-PKcs inhibition extends the therapeutic index of localized radiotherapy and chemotherapy” (The Journal of Clinical Investigation, 2019).
